Laboratory results published in PubChem BioAssay AID2305 (GlaxoSmithKline (GSK), 2010).
“And” between values parts separate entries of the source, which are not always exact repeats. Equal values may be shown once.

What follows are molecules tested on P. falciparum 3D7 growth, pLDH absorbance (assay: blood-stage malaria parasite growth potency – strain 3D7, dose response (AID 2305)).
Work on `O=C(NCc1ccccc1)c1ccc(C(=O)NCC2CNCCO2)cc1` (stereo not drawn) yielded an IC50 of 1140 nM. Work on `Oc1ccc(CCNc2nc(NCCCOc3ccccc3-c3cccnc3)nc(N3CCNCC3)n2)cc1` yielded an IC50 of 1040 nM. Work on `COC(=O)c1cccc(CNCc2ccc(-c3ccc(-c4nc5ccccc5[nH]4)s3)cc2)c1` yielded an IC50 of 290 nM. For `O=C(Nc1ccc(OC2CCN(Cc3ccsc3)C2)c(Cl)c1)c1cccs1` (stereo not drawn), the IC50 was 960 nM. Work on `CC1(C)CCNc2cc(NC(=O)c3ccc(-c4ncccc4C(F)(F)F)cc3)ccc21` yielded an IC50 of 900 nM. `CO/C(=C\C=C\c1cc2cc(Cl)c(Cl)cc2[nH]1)C(=O)NCCCN1CCN(c2cccc(OCC(=O)Nc3ccccc3)c2)CC1` showed an IC50 of 500 nM. For `Nc1nccc2ccc(-c3cccc(OCc4ccccc4)c3)cc12`, the IC50 was 290 nM. For `CC(C)CNCc1cccc(-c2cccc(CN(C(=O)Nc3ccccc3)C3CCN(Cc4ccccc4)CC3)c2)c1`, the IC50 was 370 nM. `COc1ccc(OC)c(NC(=O)C2c3ccccc3C(=O)N(CC(C)C)C2c2cccs2)c1` (stereo not drawn) gave an IC50 of 810 nM. With `Cc1ccc2nc(Cl)c3cc(C(=O)NCCCN4CCCC4)sc3c2c1` the IC50 was 1140 nM. For `COc1ccc(-c2cncc3ccc(C(=O)NCCCn4ccnc4)nc23)cc1`, the IC50 was 750 nM. In the case of `O=C(Nc1ccccc1Cl)NC1CCC(CN2CCC(c3c[nH]c4ccccc34)CC2)CC1` (stereo not drawn), the IC50 is reported as 800 nM and 750 nM. For `O=C(/C=C/c1ccc(Cl)c(Cl)c1)NCCCCCN1CCCN(C(=O)Nc2ccc(Br)cc2)CC1`, the IC50 was 780 nM. Molecule `Fc1cccc(COc2ccc(Nc3ncnc4sc(C#C[C@H]5CC[C@H](CN6CCOCC6)N5)cc34)cc2Cl)c1` has an IC50 of 920 nM. Work on `Cc1noc(C)c1-c1cccc(CNCc2cccc(-c3ccc(-c4nc5ccccc5[nH]4)s3)c2)c1` yielded an IC50 of 200 nM. `CCCC(CNCc1cccc(OC(F)(F)F)c1)CNc1cc(=O)c2ccccc2[nH]1` (stereo not drawn) showed an IC50 of 560 nM. Molecule `CC(C)(C)c1ccc2oc(=O)n(C3CCN(C(=O)c4ccc([N+](=O)[O-])o4)CC3)c2c1` has an IC50 of 820 nM. `COc1cc(C(=O)NC2CCC(CN3CCC(c4c[nH]c5ccccc45)CC3)CC2)cc(Cl)n1` (stereo not drawn) gave an IC50 of 690 nM. Work on `CCCC(=O)Nc1ccc(OCCCN(Cc2cccc(C(F)(F)F)c2)c2ccc(C#N)c(C(F)(F)F)c2)cc1` yielded an IC50 of 1090 nM. `Nc1ncc(-c2cn[nH]c2)cc1-c1nc2ccc(F)cc2[nH]1` showed an IC50 of 730 nM. `Cc1c(-c2cccc(C(C)(C)NCCCN3CCCCC3)c2)cnc(N)c1C` showed an IC50 of 940 nM. Molecule `COc1ccc(C(=O)c2ccc3[nH]cc(C4=CCN(C)CC4)c3c2)cc1` has an IC50 of 1050 nM. `Cc1noc(-c2ccc(N3CCC(C(=O)N4CCN(C(C)C)CC4)CC3)cc2)n1` was tested, and the IC50 was 1070 nM. In the case of `CC(C)CCNCc1ccc(OCc2ccccc2COc2ccc(CNCCC(C)C)cc2I)c(I)c1`, the IC50 is reported as 430 nM. `CC(=O)N/N=C/[C@H](CCc1ccccc1)NC(=O)[C@H](CC(C)C)NC(=O)c1ccc(F)cc1` gave an IC50 of 690 nM. Work on `O=C(NCCCCN1CCC(c2ccc3c(c2O)CCCC3)CC1)c1ccc(-c2ccc(Cl)cc2)cc1` yielded an IC50 of 750 nM. In the case of `COc1cc(N)c(Cl)cc1C(=O)NC1CCC(NCC2CCCCC2)CC1` (stereo not drawn), the IC50 is reported as 430 nM. `Cc1ccc2c(c1)NC[C@@]21CCN(C[C@@H](O)C2CCN(c3ccnc(Cl)c3)CC2)C[C@@H]1C` showed an IC50 of 940 nM. For `CCn1ccc2c(N3CCCCS3(=O)=O)cc(C(=O)N[C@@H](Cc3ccccc3)[C@H](O)CNC3CCCCC3)cc21`, the IC50 was 120 nM. For `Cc1cc(N2CCC(N(C)C)C2)nc(Nc2ccc(Cl)cc2)n1` (stereo not drawn), the IC50 was 520 nM. `OCC(c1ccccc1)n1c(COc2ccc(Cl)cc2)nc2c(OCCCN3CCCCC3)cccc21` (stereo not drawn) showed an IC50 of 920 nM. `O=C(NCCCCN1CC[C@@H]2c3cccc(O)c3CC[C@H]21)c1ccc(-c2ccccc2)cc1` showed an IC50 of 1380 nM. Work on `Clc1ccc(CNc2nc(NCCc3cnc[nH]3)nc(N3CCCC4CCCCC43)n2)cc1` (stereo not drawn) yielded an IC50 of 590 nM. `O=C(CCCCCNC(=O)c1ccc(O)c(-c2ccc(Cl)c(Cl)c2)c1)NCCN1CCCC1` showed an IC50 of 980 nM. `COc1ccc2nc(C)cc(NN=Cc3ccccc3)c2c1` showed an IC50 of 1030 nM. With `Cc1ccc(Nc2nc(C)cc(N3CCN(CCc4ccccc4)CC3)n2)cc1` the IC50 was 970 nM. `NC1CCN(c2nc(NCCCc3ccc(O)cc3)nc(NCc3cccc4ccccc34)n2)CC1` showed an IC50 of 720 nM. For `COc1cccc(C(=O)Nc2ccc(Oc3ccc(Cl)cc3)cc2)c1`, the IC50 was 960 nM. For `CN(c1ccccc1)S(=O)(=O)c1cccc(NC(=O)c2ccc(-n3ccnc3)c([N+](=O)[O-])c2)c1`, the IC50 was 1130 nM. With `Cc1[nH]c(C)c([N+](=O)[O-])c(=O)c1-c1ccc(Oc2ccccc2)cc1` the IC50 was 270 nM. For `c1ccc2nc(NCCCCCCCCNc3ccc4ccccc4n3)ccc2c1`, the IC50 was 270 nM. `Cc1cccc2c3c([nH]c12)C1(CCN(CCc2ccccc2)CC1)NC(C(=O)NCc1ccccc1)C3` (stereo not drawn) gave an IC50 of 1000 nM. `CCCCCCNc1cc(C)nc(/N=C(\N)Nc2cccc(C(F)(F)F)c2)n1` was tested, and the IC50 was 740 nM. `Cc1nc(-c2nc(NCCc3c(C)noc3C)ncc2-c2ccsc2)sc1C` showed an IC50 of 260 nM. `CN(C)c1cccc2c1nc(-c1ccc3c(c1)CCO3)n2CCNCc1ccccc1` gave an IC50 of 730 nM. `Cc1cc(N[C@@H](CC(C)C)C(=O)NC2CCCC2)nc(NCc2ccccc2C)n1` gave an IC50 of 1340 nM. In the case of `CC(C)C(=O)NC(Nc1ccc([N+](=O)[O-])cc1)C(Cl)(Cl)Cl` (stereo not drawn), the IC50 is reported as 840 nM. `COc1ccc(CCNCCCCCNCCCc2ccc(Cl)cc2)cc1OC` showed an IC50 of 810 nM. Molecule `CS(=O)(=O)Nc1ccc2[nH]cc(C3CCN(CC(O)C4CCN(C(=O)/C=C/c5ccc(Cl)c(Cl)c5)CC4)CC3)c2c1` (stereo not drawn) has an IC50 of 1760 nM. `COc1cccc(-n2ncc3c(N/N=C/c4ccc(CN(C)CCN(C)C)cc4)ncnc32)c1` gave an IC50 of 890 nM. For `O=C(NCCN1CCCc2ccccc21)C1CCN(c2nc(-c3ccc(Cl)cc3)no2)CC1`, the IC50 was 690 nM. `COc1cc(NC(=O)/C=C/c2cc(F)cc(F)c2F)cc(OCCN2CCN(CCN3CCOCC3)CC2)c1` showed an IC50 of 770 nM. With `COc1nc(N)ncc1C(=O)NC1CN2CCC1CC2` (stereo not drawn) the IC50 was 240 nM. `Cc1cc(C)cc(N2C(N)=NC(N)=NC2(C)C)c1` gave an IC50 of 40 nM. In the case of `O=C(Nc1ccc(Cl)cc1)c1ccc(CN2CCCN(Cc3ccsc3)CC2)cc1`, the IC50 is reported as 860 nM. `N#CN1CC[C@@H](NS(=O)(=O)Cc2ccc(Cl)c(Cl)c2)C1` showed an IC50 of 530 nM. Work on `C=Cc1c(C2CCN(CCCCNC(=O)c3ccc(-c4ccc(C#N)cc4)cc3)CC2)ccc2c1CCCC2` yielded an IC50 of 880 nM. `COC(=O)c1ccc(CC(C)NCC(O)c2cccc(C(F)(F)F)c2)c(OC)c1` (stereo not drawn) showed an IC50 of 800 nM. Molecule `Cn1cnc(CCNC(=O)c2ccc(-c3ccc(-c4nc5ccc(F)cc5[nH]4)cc3)cc2)c1` has an IC50 of 870 nM. Work on `CN(Cc1ccccc1)C1CCCN(c2cc(NC(=O)c3cccs3)ccn2)C1` (stereo not drawn) yielded an IC50 of 1130 nM. `CCOC(=O)c1ccc(NCc2ccccn2)cc1` gave an IC50 of 630 nM. In the case of `COc1ccc(C2C(C(=O)Nc3cc(C)ccc3OC)c3ccccc3C(=O)N2C)cc1` (stereo not drawn), the IC50 is reported as 980 nM. Work on `Cc1ccc(C2CCN(CCCCNC(=O)c3ccc(-c4ccc(C(F)(F)F)cc4)cc3)CC2)c(O)c1` yielded an IC50 of 130 nM. For `C#CCNCc1ccc(-c2ccc(-c3nc4ccc(C(F)(F)F)cc4[nH]3)s2)cc1`, the IC50 was 740 nM. With `Cc1cccc2[nH]c(C3CCN(CC4CCN(C(=O)/C=C/c5ccc(Cl)c(Cl)c5)CC4)CC3)nc12` the IC50 was 480 nM. Molecule `CC(=O)c1cccc(Nc2nc3c(C#N)c(OCc4cc(Cl)cc(Cl)c4)ccc3[nH]2)c1` has an IC50 of 870 nM. Molecule `Cc1cc(N2CCC(NS(=O)(=O)c3ccc(F)cc3)CC2)nc(Nc2cccc(C#N)c2)n1` has an IC50 of 650 nM. In the case of `COc1cccc2sc(N3CCN(C(=O)c4ccc([N+](=O)[O-])o4)CC3)nc12`, the IC50 is reported as 870 nM. Work on `CCOc1cc(C(=O)Nc2ccccc2N2CCN(S(C)(=O)=O)CC2)cc(OCC)c1OCC` yielded an IC50 of 650 nM. Molecule `CC(C)(C)Nc1cc(C(=O)N[C@@H](Cc2ccccc2)[C@H](O)CNC2CCOCC2)cc(N2CCCCS2(=O)=O)c1` has an IC50 of 150 nM. `Fc1cccc(Nc2nc(NCc3ccc(OCc4ccccc4)cc3)nc(Nc3cccc(F)c3)n2)c1` gave an IC50 of 1180 nM. `COc1ccc(Cn2c(Nc3cccc(C(F)(F)F)c3)nc3cc(C(=O)NC(C)C)cnc32)cc1Cl` showed an IC50 of 970 nM. With `CC(=O)Nc1ccc(NC(=O)c2cc(-c3cc(Cl)ccc3O)n[nH]2)cc1` the IC50 was 180 nM. Work on `Cc1ccc(NC(=O)C2CCC2)cc1-c1ccc(C(=O)NCC2CC2)cc1` yielded an IC50 of 740 nM. For `COc1ccc(CCN(C)CCOc2ccc(NC(=O)c3cccc4c(=O)c5cc(SC)ccc5[nH]c34)cc2)cc1OC`, the IC50 was 740 nM. `CC1CN(Cc2ccc(-c3ccc(-c4nc5ccc(F)cc5[nH]4)s3)cc2)CC(C)O1` (stereo not drawn) showed an IC50 of 880 nM. In the case of `OCc1ccc(-c2cncc(Nc3cccc(Cl)c3)c2)cc1`, the IC50 is reported as 70 nM. With `NC(N)=NN=Cc1ccc2c(ccc3ccccc32)c1` the IC50 was 630 nM. `Cc1c(-c2ccc(C(=O)NC3CC(C)(C)NC(C)(C)C3)cc2)[nH]c2cc(Cl)c(Cl)cc12` gave an IC50 of 750 nM. In the case of `OC1(c2ccc(Br)cc2)CCN(C2CCN(Cc3ccccc3)CC2)CC1`, the IC50 is reported as 600 nM. Work on `COc1ccc(CNCCCCCCCNCc2ccc(Cl)c(Cl)c2)cc1Cl` yielded an IC50 of 1220 nM. Molecule `Cc1[nH]c(C)c(-c2ccc(-c3ccc(C#N)cc3)nc2)c(=O)c1Br` has an IC50 of 980 nM. `Cc1ccc(C2CCN(CCCCNC(=O)c3ccc(NC(=O)c4ccc(Cl)cc4)cc3)CC2)c(C)c1` was tested, and the IC50 was 840 nM. `CCc1ccccc1-c1csc(C(=O)NCC2CCN(Cc3ccc(C(C)(C)C)cc3)C2)c1` (stereo not drawn) gave an IC50 of 1150 nM. Work on `CCCN(Cc1nnc(-c2ccco2)o1)C(=O)C1CCCN(C(=O)c2ccc(Cl)cc2)C1` (stereo not drawn) yielded an IC50 of 520 nM. `CCOc1c(OC)ccc2c1CCN(CCN1CCC(CNC(=O)c3ccc(-c4ccc(C(F)(F)F)cc4)cc3)CC1)C2` showed an IC50 of 850 nM. `CCCCCCOc1ccc(C(=O)N(Cc2ccccc2)c2c(-c3ccccc3)nc3cc(C)ccn23)cc1` gave an IC50 of 770 nM. `COCc1nc(-c2ccccc2)nc(N2CCN(C(=O)NC(C)C)CC2)c1Cc1ccccc1F` showed an IC50 of 1000 nM. Work on `CCCCCCC(C)(C)c1cc(O)c2c3c(c(=O)oc2c1)CCN(Cc1ccccc1)C3` yielded an IC50 of 220 nM. `Cc1cccc(C(O)CNc2ccnc(Nc3cccc(-c4csc(C)n4)c3)n2)c1` (stereo not drawn) gave an IC50 of 680 nM. Molecule `O=C(c1ccccc1N=Nc1c(-c2ccccc2)[nH]n(-c2ccccc2)c1=O)N1CCOCC1` has an IC50 of 350 nM. Work on `CC(=O)Nc1cccc(C(=O)Nc2ccc(-c3cccc(-c4nc5ccc(C(F)(F)F)cc5[nH]4)c3)cc2)c1` yielded an IC50 of 150 nM. `CC(C)(O)CC(C)(C)c1cc(Cl)ccc1O` showed an IC50 of 450 nM. Work on `CNC(=O)Cc1ccc(C(=O)Nc2cccc(-c3ccc(-c4nc5c(C)cccc5[nH]4)s3)c2)cc1` yielded an IC50 of 630 nM. `O=c1cc(NCCCNCc2cccc(I)c2)[nH]c2ccccc12` showed an IC50 of 1020 nM. For `FC(F)(F)COc1ccc(CCNCCCCNCCc2ccc(OCC(F)(F)F)c3ccccc23)c2ccccc12`, the IC50 was 650 nM. Molecule `CCN(CC)CCN(Cc1ccc(-c2ccc(C(F)(F)F)cc2)cc1)C(=O)Cn1c(CCc2cccc(F)c2F)nc(=O)c2sccc21` has an IC50 of 900 nM. `CCc1ccccc1N1CCN(CCCC(=O)c2ccc(NC(=O)c3cc(Cl)cc(Cl)c3)cc2)CC1` was tested, and the IC50 was 290 nM.
